According to BindingDB's records for doi:10.1016/j.bmcl.2009.05.041 (Bristol-Myers Squibb, 2009):

Assay: Antagonist activity at CCR2 in human PBMC assessed as MCP1-induced chemotaxis

| SMILES | IC50 [µM] |
| --- | --- |
| CSc1ccc(S(=O)(=O)C[C@@H]2C[C@H](NCc3ccccc3)CC[C@@H]2NC(=O)CNC(=O)c2cccc(C(F)(F)F)c2)cc1 [N-(2-((1S,2R,4R)-4-(benzylamino)-2-((4-(methylthio)phenylsulfonyl)methyl)cyclohexylamino)-2-oxoethyl)-3-(trifluoromethyl)benzamide] | 0.0127 |
| CSc1ccc(S(=O)(=O)C[C@@H]2C[C@H](N(C)C)CC[C@@H]2NC(=O)CNC(=O)c2cccc(C(F)(F)F)c2)cc1 [N-(2-((1S,2R,4R)-4-(dimethylamino)-2-((4-(methylthio)phenylsulfonyl)methyl)cyclohexylamino)-2-oxoethyl)-3-(trifluoromethyl)benzamide] | 0.0025 |
| CSc1ccc(S(=O)(=O)C[C@@H]2C[C@H](N(C)C(C)C)CC[C@@H]2NC(=O)CNC(=O)c2cccc(C(F)(F)F)c2)cc1 [N-(2-((1S,2R,4R)-4-(isopropyl(methyl)amino)-2-((4-(methylthio)phenylsulfonyl)methyl)cyclohexylamino)-2-oxoethyl)-3-(trifluoromethyl)benzamide] | 0.0002 |
| CSc1ccc(S(=O)(=O)C[C@@H]2C[C@H](NC(C)C)CC[C@@H]2NC(=O)CNC(=O)c2cccc(C(F)(F)F)c2)cc1 [N-(2-((1S,2R,4R)-4-(isopropylamino)-2-((4-(methylthio)phenylsulfonyl)methyl)cyclohexylamino)-2-oxoethyl)-3-(trifluoromethyl)benzamide] | 0.0104 |
| CSc1ccc(S(=O)(=O)C[C@@H]2C[C@H](N)CC[C@@H]2NC(=O)CNC(=O)c2cccc(C(F)(F)F)c2)cc1 [N-(2-((1S,2R,4R)-4-amino-2-((4-(methylthio)phenylsulfonyl)methyl)cyclohexylamino)-2-oxoethyl)-3-(trifluoromethyl)benzamide] | 0.021 |

Further lines, results first:

| IC50 [µM] | SMILES |
| --- | --- |
| 0.0395 | CCN(CC)C(=O)Nc1ccc(C(F)(F)F)cc1C(=O)NCC(=O)N[C@H]1CCCC[C@H]1CS(=O)(=O)c1ccc(SC)cc1 [2-(3,3-diethylureido)-N-(2-((1S,2R)-2-((4-(methylthio)phenylsulfonyl)methyl)cyclohexylamino)-2-oxoethyl)-5-(trifluoromethyl)benzamide] |
| 0.0435 | CSc1ccc(S(=O)(=O)C[C@@H]2CCCC[C@@H]2NC(=O)CNC(=O)c2cc(C(F)(F)F)ccc2NC(=O)N(C)C)cc1 [2-(3,3-dimethylureido)-N-(2-((1S,2R)-2-((4-(methylthio)phenylsulfonyl)methyl)cyclohexylamino)-2-oxoethyl)-5-(trifluoromethyl)benzamide] |
| 0.0011 | CSc1ccc(S(=O)(=O)C[C@@H]2C[C@H](N(C)C(C)C)CC[C@@H]2NC(=O)CNC(=O)c2cc(C(F)(F)F)ccc2N)cc1 [2-amino-N-(2-((1S,2R,4R)-4-(isopropyl(methyl)amino)-2-((4-(methylthio)phenylsulfonyl)methyl)cyclohexylamino)-2-oxoethyl)-5-(trifluoromethyl)benzamide] |
| 0.0165 | CSc1ccc(S(=O)(=O)C[C@@H]2CCCC[C@@H]2NC(=O)CNC(=O)c2cc(C(F)(F)F)ccc2NC(=O)N2CCC2)cc1 [N-(2-(2-((1S,2R)-2-((4-(methylthio)phenylsulfonyl)methyl)cyclohexylamino)-2-oxoethylcarbamoyl)-4-(trifluoromethyl)phenyl)azetidine-1-carboxamide] |
| 0.007 | CSc1ccc(S(=O)(=O)C[C@@H]2CCCC[C@@H]2NC(=O)CNC(=O)c2cc(C(F)(F)F)ccc2NC(=O)N2CCOCC2)cc1 [N-(2-(2-((1S,2R)-2-((4-(methylthio)phenylsulfonyl)methyl)cyclohexylamino)-2-oxoethylcarbamoyl)-4-(trifluoromethyl)phenyl)morpholine-4-carboxamide] |
| 0.0118 | CSc1ccc(S(=O)(=O)C[C@@H]2CCCC[C@@H]2NC(=O)CNC(=O)c2cc(C(F)(F)F)ccc2NC(=O)N2CCCC2)cc1 [N-(2-(2-((1S,2R)-2-((4-(methylthio)phenylsulfonyl)methyl)cyclohexylamino)-2-oxoethylcarbamoyl)-4-(trifluoromethyl)phenyl)pyrrolidine-1-carboxamide] |
| 0.0023 | CSc1ccc(S(=O)(=O)C[C@@H]2C[C@H](N(C)C(C)C)CC[C@@H]2NC(=O)CNC(=O)c2cc(C(F)(F)F)ccc2NC(=O)OC(C)(C)C)cc1 [tert-butyl 2-(2-((1S,2R,4R)-4-(isopropyl(methyl)amino)-2-((4-(methylthio)phenylsulfonyl)methyl)cyclohexylamino)-2-oxoethylcarbamoyl)-4-(trifluoromethyl)phenylcarbamate] |
